Data as given in the NIST ThermoML archive (doi:10.1021/je8005369).

Conditions: Liquid; for mass density: Vibrating Wire Viscometer; for viscosity: Vibrating wire viscometry

CC(C)OC(C)C [diisopropyl ether]
Conditions | mass density [kg/m3] | viscosity [mPa·s]
243.15 K, 100 kPa | 772.385 | 0.6191
243.15 K, 4660 kPa | 776.195 | 0.6466
243.15 K, 10070 kPa | 780.42 | 0.6826
243.15 K, 15370 kPa | 784.377 | 0.7177
243.15 K, 20860 kPa | 788.392 | 0.7529
253.15 K, 100 kPa | 762.804 | 0.5343
253.15 K, 4720 kPa | 766.842 | 0.5601
253.15 K, 9990 kPa | 771.35 | 0.5898
253.15 K, 15400 kPa | 775.704 | 0.6187
253.15 K, 20740 kPa | 779.692 | 0.65
263.15 K, 100 kPa | 753.037 | 0.4687
263.15 K, 4470 kPa | 757.298 | 0.4896
263.15 K, 9490 kPa | 761.805 | 0.5141
263.15 K, 14490 kPa | 766.126 | 0.5388
263.15 K, 19640 kPa | 770.142 | 0.5638
273.15 K, 100 kPa | 743.309 | 0.4142
273.15 K, 4690 kPa | 748.026 | 0.4344
273.15 K, 10010 kPa | 753.179 | 0.4579
273.15 K, 15290 kPa | 757.99 | 0.4815
273.15 K, 20420 kPa | 762.359 | 0.5042
283.15 K, 100 kPa | 733.393 | 0.3689
283.15 K, 4700 kPa | 738.525 | 0.3877
283.15 K, 10100 kPa | 744.147 | 0.4088
283.15 K, 15460 kPa | 749.321 | 0.4306
283.15 K, 21360 kPa | 754.612 | 0.456
293.15 K, 100 kPa | 723.318 | 0.3311
293.15 K, 4470 kPa | 728.638 | 0.3474
293.15 K, 9590 kPa | 734.393 | 0.3671
293.15 K, 14750 kPa | 739.779 | 0.3855
293.15 K, 20450 kPa | 745.301 | 0.4079
303.15 K, 100 kPa | 713.113 | 0.299
303.15 K, 4440 kPa | 718.817 | 0.3124
303.15 K, 9500 kPa | 725.014 | 0.331
303.15 K, 14650 kPa | 730.787 | 0.3496
303.15 K, 19650 kPa | 735.942 | 0.3668
313.15 K, 100 kPa | 702.804 | 0.2703
313.15 K, 4840 kPa | 709.502 | 0.2869
313.15 K, 10140 kPa | 716.438 | 0.3038
313.15 K, 15550 kPa | 722.843 | 0.3213
313.15 K, 21490 kPa | 729.298 | 0.3414
323.15 K, 100 kPa | 692.225 | 0.2468
323.15 K, 4760 kPa | 699.461 | 0.2615
323.15 K, 10370 kPa | 707.408 | 0.2776
323.15 K, 15480 kPa | 713.832 | 0.2946
323.15 K, 20780 kPa | 720.04 | 0.311
333.15 K, 100 kPa | 681.435 | 0.2254
333.15 K, 4750 kPa | 689.427 | 0.2389
333.15 K, 10360 kPa | 697.963 | 0.2554
333.15 K, 15670 kPa | 705.137 | 0.2716
333.15 K, 20890 kPa | 711.63 | 0.2848
343.15 K, 130 kPa | 670.401 | 0.2064
343.15 K, 4390 kPa | 678.519 | 0.2183
343.15 K, 9530 kPa | 687.069 | 0.2335
343.15 K, 14740 kPa | 694.891 | 0.2471
343.15 K, 21230 kPa | 703.496 | 0.2649
353.15 K, 200 kPa | 659.151 | 0.1889
353.15 K, 4830 kPa | 668.72 | 0.203
353.15 K, 10320 kPa | 678.629 | 0.2176
353.15 K, 15760 kPa | 687.163 | 0.2324
353.15 K, 21100 kPa | 694.71 | 0.2466
363.15 K, 230 kPa | 647.498 | 0.1736
363.15 K, 4730 kPa | 657.763 | 0.1871
363.15 K, 10170 kPa | 668.51 | 0.2014
363.15 K, 15830 kPa | 678.192 | 0.2152
363.15 K, 20860 kPa | 685.734 | 0.2294
373.15 K, 310 kPa | 635.452 | 0.1602
373.15 K, 4730 kPa | 646.883 | 0.1721
373.15 K, 9630 kPa | 657.52 | 0.1854
373.15 K, 15600 kPa | 668.559 | 0.2008
373.15 K, 21680 kPa | 678.358 | 0.2152
